Target: T1, SGKL (SGK3) (Homo sapiens, UniProt Q96BR1)
T1 construct: purchased Thermo Fisher Scientific (Life Technologies) SelectScreen
Test: SelectScreen Z'LYTE
Assay type: biochemical
Procedure, shortened: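 SelectScreen broad panel; activity (Z'LYTE, Adapta) plus binding formats. ATP: Km app for CSF1R Z'LYTE; 10 for CAMK1 Adapta. Readout = % per kinase.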

T1 sequence (Q96BR1 whole entry): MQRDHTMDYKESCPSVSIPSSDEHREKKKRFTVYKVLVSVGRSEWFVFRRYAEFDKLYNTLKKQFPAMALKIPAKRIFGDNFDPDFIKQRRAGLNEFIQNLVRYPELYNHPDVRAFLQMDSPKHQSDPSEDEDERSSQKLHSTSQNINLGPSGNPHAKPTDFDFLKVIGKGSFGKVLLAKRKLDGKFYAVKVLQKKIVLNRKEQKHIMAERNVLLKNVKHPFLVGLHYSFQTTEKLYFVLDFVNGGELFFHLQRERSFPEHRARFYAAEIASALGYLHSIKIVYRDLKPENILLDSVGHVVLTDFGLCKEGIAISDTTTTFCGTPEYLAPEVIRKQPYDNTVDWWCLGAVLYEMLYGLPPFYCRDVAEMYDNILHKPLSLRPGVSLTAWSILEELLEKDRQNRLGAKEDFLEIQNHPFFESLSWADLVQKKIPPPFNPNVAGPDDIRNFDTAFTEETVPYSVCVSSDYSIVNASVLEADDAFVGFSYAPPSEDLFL

How did the inhibition at 1 µM turn out when `CN(C(=O)CN1CCOCC1)c1ccc2sc3c(-c4cccc5c(=O)cc(N6CC7CCC(C6)O7)oc45)cccc3c2c1` [NU5455] was run?
The inhibition at 1 µM was -4.6%.

Source: article PMC6934184, “Selective DNA-PKcs inhibition extends the therapeutic index of localized radiotherapy and chemotherapy” (The Journal of Clinical Investigation, 2019)
